The test deals with MV-4-11 cells. Kind of test: Gene expression microarray analysis (Affymetrix PrimeView) and GSEA. It counts as cell-based, human. More on the design: RFU PODN (11730768_x_at) / Fold change /veh PODN (11730768_x_at) / RFU LINC00158 (11744669_a_at) / Fold change /veh LINC00158 (11744669_a_at) / RFU DUSP10 (11751237_a_at) / Fold change /veh DUSP10 (11751237_a_at) / RFU ID3 (11757404_x_at) / Fold change /veh ID3 (11757404_x_at) / RFU PLEKHG5 (11737974_s_at) / Fold change /veh PLEKHG5 (11737974_s_at) / RFU LRRC4B (11730491_at) / Fold change /veh LRRC4B (11730491_at) / RFU GIMAP4 (11747438_a_at) / Fold change /veh GIMAP4 (11747438_a_at) / RFU KRT8 (11758183_x_at) / Fold change /veh KRT8 (11758183_x_at) / RFU CNN1 (11734310_a_at) / Fold change /veh CNN1 (11734310_a_at) / RFU VPS37D (11726825_at) / Fold change /veh VPS37D (11726825_at) / RFU C10orf10 (11716522_x_at) / Fold change /veh C10orf10 (11716522_x_at) / RFU KIR2DL2 /// KIR2DL4 /// KIR2DL5A /// KIR2DL5B /// KIR2DS1 /// KIR2DS2 /// KIR2DS3 /// KIR2DS4 /// KIR3DL3 /// KIR3DL3 /// KIR3DS1 (11738374_at) / Fold change /veh KIR2DL2 /// KIR2DL4 /// KIR2DL5A /// KIR2DL5B /// KIR2DS1 /// KIR2DS2 /// KIR2DS3 /// KIR2DS4 /// KIR3DL3 /// KIR3DL3 /// KIR3DS1 (11738374_at) / RFU C1QL1 (11718748_at) / Fold change /veh C1QL1 (11718748_at) / RFU TMPRSS4 (11747572_a_at) / Fold change /veh TMPRSS4 (11747572_a_at) / RFU HAMP (11756126_x_at) / Fold change /veh HAMP (11756126_x_at) / RFU RNFT2 (11725882_a_at) / Fold change /veh RNFT2 (11725882_a_at) / RFU NR4A2 (11747474_a_at) / Fold change /veh NR4A2 (11747474_a_at) / RFU ABCC12 (11746883_a_at) / Fold change /veh ABCC12 (11746883_a_at) / RFU TMEM136 (11760407_x_at) / Fold change /veh TMEM136 (11760407_x_at) / RFU CLDN22 /// WWC2 (11732394_at) / Fold change /veh CLDN22 /// WWC2 (11732394_at) / RFU HLA-DPB1 (11760878_x_at) / Fold change /veh HLA-DPB1 (11760878_x_at) / RFU SPINT1 (11716480_a_at) / Fold change /veh SPINT1 (11716480_a_at) / RFU GAP43 (11754022_s_at) / Fold change /veh GAP43 (11754022_s_at) / RFU A4GNT (11735810_at) / Fold change /veh A4GNT (11735810_at) / RFU PRB3 (11715151_x_at) / Fold change /veh PRB3 (11715151_x_at) / RFU TUBB4B (11761932_at) / Fold change /veh TUBB4B (11761932_at) / RFU CAPN14 (11732068_a_at) / Fold change /veh CAPN14 (11732068_a_at) / RFU TMCC2 (11721928_a_at) / Fold change /veh TMCC2 (11721928_a_at) / RFU IRGQ (11745062_a_at) / Fold change /veh IRGQ (11745062_a_at) / RFU FAM174B (11720279_a_at) / Fold change /veh FAM174B (11720279_a_at) / RFU TMPRSS4 (11748680_a_at) / Fold change /veh TMPRSS4 (11748680_a_at) / RFU FAM212B (11763350_a_at) / Fold change /veh FAM212B (11763350_a_at) / RFU PLEKHG5 (11743358_a_at) / Fold change /veh PLEKHG5 (11743358_a_at) / RFU ZSCAN30 (11745921_a_at) / Fold change /veh ZSCAN30 (11745921_a_at) / RFU CMKLR1 (11741424_a_at) / Fold change /veh CMKLR1 (11741424_a_at) / RFU LOC101060620 /// MAPK8IP1 (11723275_at) / Fold change /veh LOC101060620 /// MAPK8IP1 (11723275_at) / RFU SPTSSB (11747773_x_at) / Fold change /veh SPTSSB (11747773_x_at) / RFU PRSS12 (11739890_at) / Fold change /veh PRSS12 (11739890_at) / RFU BIN1 (11741810_x_at) / Fold change /veh BIN1 (11741810_x_at) / RFU WNT11 (11732464_a_at) / Fold change /veh WNT11 (11732464_a_at) / RFU C10orf10 (11716521_a_at) / Fold change /veh C10orf10 (11716521_a_at) / RFU C5orf56 (11738089_at) / Fold change /veh C5orf56 (11738089_at) / RFU CYB561 (11721691_x_at) / Fold change /veh CYB561 (11721691_x_at) / RFU ANKRD19P (11752326_a_at) / Fold change /veh ANKRD19P (11752326_a_at) / RFU OR2T12 /// OR2T33 /// OR2T8 (11738714_s_at) / Fold change /veh OR2T12 /// OR2T33 /// OR2T8 (11738714_s_at) / RFU VCAN (11748164_a_at) / Fold change /veh VCAN (11748164_a_at) / RFU JSRP1 (11732532_at) / Fold change /veh JSRP1 (11732532_at) / RFU KRTAP10-11 (11738290_x_at) / Fold change /veh KRTAP10-11 (11738290_x_at) / RFU MYO3A (11730013_a_at) / Fold change /veh MYO3A (11730013_a_at) / RFU EBF3 (11725865_a_at) / Fold change /veh EBF3 (11725865_a_at) / RFU CAMK2N1 (11719241_x_at) / Fold change /veh CAMK2N1 (11719241_x_at) / RFU C5orf56 (11738088_a_at) / Fold change /veh C5orf56 (11738088_a_at) / RFU OLFML3 (11715873_a_at) / Fold change /veh OLFML3 (11715873_a_at) / RFU LOC100653217 /// NTM (11731650_a_at) / Fold change /veh LOC100653217 /// NTM (11731650_a_at) / RFU MAPK11 (11762145_a_at) / Fold change /veh MAPK11 (11762145_a_at) / RFU FIZ1 (11724087_x_at) / Fold change /veh FIZ1 (11724087_x_at) / RFU OASL (11726364_x_at) / Fold change /veh OASL (11726364_x_at) / RFU SOX15 (11748057_x_at) / Fold change /veh SOX15 (11748057_x_at) / RFU CD79A (11719716_a_at) / Fold change /veh CD79A (11719716_a_at) / RFU HIST1H1D (11736915_at) / Fold change /veh HIST1H1D (11736915_at) / RFU CASKIN2 (11723855_a_at) / Fold change /veh CASKIN2 (11723855_a_at) / RFU LOC730098 (11760151_x_at) / Fold change /veh LOC730098 (11760151_x_at) / RFU OR4N2 (11742367_at) / Fold change /veh OR4N2 (11742367_at) / RFU PRRT2 (11749266_a_at) / Fold change /veh PRRT2 (11749266_a_at) / RFU SNX32 (11753110_a_at) / Fold change /veh SNX32 (11753110_a_at) / RFU CDHR5 (11726645_a_at) / Fold change /veh CDHR5 (11726645_a_at) / RFU RCAN1 (11760418_a_at) / Fold change /veh RCAN1 (11760418_a_at) / RFU FAM167A (11723789_a_at) / Fold change /veh FAM167A (11723789_a_at) / RFU FAM26E (11764081_at) / Fold change /veh FAM26E (11764081_at) / RFU ISYNA1 (11749810_s_at) / Fold change /veh ISYNA1 (11749810_s_at) / RFU ACY1 (11761880_at) / Fold change /veh ACY1 (11761880_at) / RFU 11764098_at / Fold change /veh 11764098_at / RFU SAMD14 (11745864_x_at) / Fold change /veh SAMD14 (11745864_x_at) / RFU NPB (11741838_a_at) / Fold change /veh NPB (11741838_a_at) / RFU TMPRSS6 (11731388_a_at) / Fold change /veh TMPRSS6 (11731388_a_at) / RFU KRTAP10-2 (11738614_at) / Fold change /veh KRTAP10-2 (11738614_at) / RFU ARHGAP8 /// PRR5-ARHGAP8 (11727945_x_at) / Fold change /veh ARHGAP8 /// PRR5-ARHGAP8 (11727945_x_at) / RFU KRTAP5-7 /// NADSYN1 (11734609_at) / Fold change /veh KRTAP5-7 /// NADSYN1 (11734609_at) / RFU RASL12 (11751679_a_at) / Fold change /veh RASL12 (11751679_a_at) / RFU CDKN2B (11736163_a_at) / Fold change /veh CDKN2B (11736163_a_at) / RFU PRF1 (11729649_at) / Fold change /veh PRF1 (11729649_at) / RFU, ZNF638 /// ZNF638-IT1 / Fold change vs veh, ZNF638 /// ZNF638-IT1 / RFU, PANK3 / Fold change vs veh, PANK3 / RFU, SH3YL1 / Fold change vs veh, SH3YL1 / RFU, ZEB2 / Fold change vs veh, ZEB2 / RFU, NRIP1 / Fold change vs veh, NRIP1 / RFU, PTTG1IP / Fold change vs veh, PTTG1IP / RFU, CAPN2 / Fold change vs veh, CAPN2 / RFU, MED14 / Fold change vs veh, MED14 / RFU, SNORA58 / Fold change vs veh, SNORA58 / RFU, C1orf63 / Fold change vs veh, C1orf63 / RFU, LRRFIP1 / Fold change vs veh, LRRFIP1 / RFU, NDUFAF7 / Fold change vs veh, NDUFAF7 / RFU, SLC12A2 / Fold change vs veh, SLC12A2 / RFU, IBTK / Fold change vs veh, IBTK / RFU, ESF1 / Fold change vs veh, ESF1 / Fold change vs veh, TMEM50B / RFU, TAOK1 / Fold change vs veh, TAOK1 / RFU, ACBD3 / Fold change vs veh, ACBD3 / RFU, TMA16 / Fold change vs veh, TMA16 / RFU, RWDD3 / Fold change vs veh, RWDD3 / RFU, BCAT1 / Fold change vs veh, BCAT1 / RFU, EDEM3 / Fold change vs veh, EDEM3 / RFU, TMEM33 / Fold change vs veh, TMEM33 / RFU, WDR75 / Fold change vs veh, WDR75 / RFU, AHCTF1 / Fold change vs veh, AHCTF1 / RFU, TFRC / Fold change vs veh, TFRC / RFU, ZDHHC17 / Fold change vs veh, ZDHHC17 / RFU, NOM1 / Fold change vs veh, NOM1 / RFU, ARL8B / Fold change vs veh, ARL8B / RFU, ZBTB11 / Fold change vs veh, ZBTB11 / RFU, TAMM41 / Fold change vs veh, TAMM41 / RFU, KIAA1704 /// LOC100996395 / Fold change vs veh, KIAA1704 /// LOC100996395 / RFU, ING1 / Fold change vs veh, ING1 / RFU, TRMT61B / Fold change vs veh, TRMT61B / RFU, FUBP3 / Fold change vs veh, FUBP3 / RFU, TP53 / Fold change vs veh, TP53 / RFU, TNKS2 / Fold change vs veh, TNKS2 / RFU, ZFP14 / Fold change vs veh, ZFP14 / RFU, ACTR2 / Fold change vs veh, ACTR2 / RFU, PPP3R1 / Fold change vs veh, PPP3R1 / RFU, PIK3R1 / Fold change vs veh, PIK3R1 / RFU, HNRNPA1 / Fold change vs veh, HNRNPA1 / RFU, RNF170 / Fold change vs veh, RNF170 / RFU, ZNF28 / Fold change vs veh, ZNF28 / RFU, RNGTT / Fold change vs veh, RNGTT / RFU, OGT / Fold change vs veh, OGT / RFU, BRD1 / Fold change vs veh, BRD1 / RFU, MARS / Fold change vs veh, MARS / RFU, ZNF655 / Fold change vs veh, ZNF655 / RFU, FAHD1 / Fold change vs veh, FAHD1 / RFU, BDP1 / Fold change vs veh, BDP1 / RFU, LRRCC1 / Fold change vs veh, LRRCC1 / RFU, ARID1A / Fold change vs veh, ARID1A / RFU, ZNF146 / Fold change vs veh, ZNF146 / RFU, ZNF330 / Fold change vs veh, ZNF330 / RFU, GPN3 / Fold change vs veh, GPN3 / RFU, C9orf123 / Fold change vs veh, C9orf123 / RFU, N4BP2L2 / Fold change vs veh, N4BP2L2 / RFU, ARFIP1 / Fold change vs veh, ARFIP1 / RFU, FAM179B / Fold change vs veh, FAM179B / RFU, BCL10 / Fold change vs veh, BCL10 / RFU, UHRF1BP1L / Fold change vs veh, UHRF1BP1L / RFU, BET1 / Fold change vs veh, BET1 / RFU, CNOT2 / Fold change vs veh, CNOT2 / RFU, ZNF268 / Fold change vs veh, ZNF268 / Fold change vs veh, ZNF507 / RFU, DGCR2 / Fold change vs veh, DGCR2 / RFU, WDSUB1 / Fold change vs veh, WDSUB1 / Fold change vs veh, HSP90B1 /// MIR3652 / RFU, ADSS / Fold change vs veh, ADSS / RFU, GK / Fold change vs veh, GK / RFU, ZNF148 / Fold change vs veh, ZNF148 / RFU, TAF9 / Fold change vs veh, TAF9 / RFU, SLC1A5 / Fold change vs veh, SLC1A5 / RFU, SLMO2 / Fold change vs veh, SLMO2 / RFU, ABCC4 / Fold change vs veh, ABCC4 / RFU, LOC101060439 /// RAP1B / Fold change vs veh, LOC101060439 /// RAP1B / RFU, RFX7 / Fold change vs veh, RFX7 / RFU, GTPBP10 / Fold change vs veh, GTPBP10 / RFU, CNEP1R1 / Fold change vs veh, CNEP1R1 / RFU, BIVM-ERCC5 /// ERCC5 / Fold change vs veh, BIVM-ERCC5 /// ERCC5 / RFU, ILF3 / Fold change vs veh, ILF3 / RFU 11762660_at / Fold change /veh 11762660_at / RFU VCAN (11757783_s_at) / Fold change /veh VCAN (11757783_s_at) / RFU DDX43 (11728927_at) / Fold change /veh DDX43 (11728927_at) / RFU KRT8 (11758188_x_at) / Fold change /veh KRT8 (11758188_x_at) / RFU NKD1 (11759106_at) / Fold change /veh NKD1 (11759106_at) / RFU SRD5A1 (11742802_a_at) / Fold change /veh SRD5A1 (11742802_a_at) / RFU TPSAB1 /// TPSB2 (11721975_s_at) / Fold change /veh TPSAB1 /// TPSB2 (11721975_s_at) / RFU GSTM3 (11746129_a_at) / Fold change /veh GSTM3 (11746129_a_at) / RFU IL23R (11737362_x_at) / Fold change /veh IL23R (11737362_x_at) / RFU TMEM51 (11727254_a_at) / Fold change /veh TMEM51 (11727254_a_at) / RFU PIWIL2 (11732686_x_at) / Fold change /veh PIWIL2 (11732686_x_at) / RFU ORM1 (11744905_x_at) / Fold change /veh ORM1 (11744905_x_at) / RFU CCDC152 (11743942_at) / Fold change /veh CCDC152 (11743942_at) / RFU ECM1 (11717891_a_at) / Fold change /veh ECM1 (11717891_a_at) / RFU IL23R (11748794_a_at) / Fold change /veh IL23R (11748794_a_at) / RFU TNFAIP8L3 (11732012_x_at) / Fold change /veh TNFAIP8L3 (11732012_x_at) / RFU MBOAT4 (11741988_at) / Fold change /veh MBOAT4 (11741988_at) / RFU 11764193_at / Fold change /veh 11764193_at / RFU TMEM53 (11763286_at) / Fold change /veh TMEM53 (11763286_at) / RFU MAGEB2 (11727129_at) / Fold change /veh MAGEB2 (11727129_at) / RFU TMEM200A (11744735_a_at) / Fold change /veh TMEM200A (11744735_a_at) / RFU CCDC152 (11751479_a_at) / Fold change /veh CCDC152 (11751479_a_at) / RFU FAM211A (11726209_a_at) / Fold change /veh FAM211A (11726209_a_at) / RFU RGS16 (11746705_a_at) / Fold change /veh RGS16 (11746705_a_at) / RFU VCAN (11755009_s_at) / Fold change /veh VCAN (11755009_s_at) / RFU RHOB (11743442_s_at) / Fold change /veh RHOB (11743442_s_at) / RFU RGS16 (11720943_a_at) / Fold change /veh RGS16 (11720943_a_at) / RFU RGS16 (11720944_at) / Fold change /veh RGS16 (11720944_at) / RFU, VPS4B / Fold change vs veh, VPS4B / RFU, CREB1 / Fold change vs veh, CREB1 / RFU, DNAJC13 / Fold change vs veh, DNAJC13 / RFU, GNAQ / Fold change vs veh, GNAQ / RFU, CDK5R1 / Fold change vs veh, CDK5R1 / RFU, ZRANB3 / Fold change vs veh, ZRANB3 / RFU, CUL4A / Fold change vs veh, CUL4A / RFU, CCNY / Fold change vs veh, CCNY / RFU, UFL1 / Fold change vs veh, UFL1 / RFU, COG3 / Fold change vs veh, COG3 / RFU, DIAPH2 / Fold change vs veh, DIAPH2 / RFU, SKA2 / Fold change vs veh, SKA2 / RFU, AFF3 / Fold change vs veh, AFF3 / RFU, LMF1 / Fold change vs veh, LMF1 / RFU, IPO11 / Fold change vs veh, IPO11 / RFU, DFFB / Fold change vs veh, DFFB / RFU, FOXP1 / Fold change vs veh, FOXP1 / RFU, CARD8 / Fold change vs veh, CARD8 / RFU, STRN3 / Fold change vs veh, STRN3 / RFU, ADK / Fold change vs veh, ADK / RFU, RASSF2 / Fold change vs veh, RASSF2 / RFU, WIPF1 / Fold change vs veh, WIPF1 / RFU, LARP1B / Fold change vs veh, LARP1B / RFU, RASA1 / Fold change vs veh, RASA1 / RFU, RB1 / Fold change vs veh, RB1 / RFU, PPFIA1 / Fold change vs veh, PPFIA1 / RFU, MAT2A / Fold change vs veh, MAT2A / RFU, CCT5 / Fold change vs veh, CCT5 / RFU, WDR92 / Fold change vs veh, WDR92 / RFU, CUX1 / Fold change vs veh, CUX1 / RFU, TTC7A / Fold change vs veh, TTC7A / RFU, TMEM135 / Fold change vs veh, TMEM135 / RFU, DEPTOR / Fold change vs veh, DEPTOR / RFU, CPM / Fold change vs veh, CPM / RFU, DNAJB6 / Fold change vs veh, DNAJB6 / RFU, CACNA2D3 / Fold change vs veh, CACNA2D3 / RFU, DTX4 / Fold change vs veh, DTX4 / RFU, TFCP2 / Fold change vs veh, TFCP2 / RFU, GMCL1 /// GMCL1P1 / Fold change vs veh, GMCL1 /// GMCL1P1 / RFU, AEBP2 / Fold change vs veh, AEBP2 / RFU, SNHG1 /// SNORD22 /// SNORD25 /// SNORD26 /// SNORD27 /// SNORD28 /// SNORD29 /// SNORD31 / Fold change vs veh, SNHG1 /// SNORD22 /// SNORD25 /// SNORD26 /// SNORD27 /// SNORD28 /// SNORD29 /// SNORD31 / Fold change (Aza/veh), C12orf56 (ProbeSet 11735607_a_at) / Fold change (ACY-1035/veh), C12orf56 (ProbeSet 11735607_a_at) / Fold change (Aza/veh), FGFR1OP (ProbeSet 11751329_s_at) / Fold change (ACY-1035/veh), FGFR1OP (ProbeSet 11751329_s_at) / Fold change (Aza/veh), VPS36 (ProbeSet 11739960_a_at) / Fold change (ACY-1035/veh), VPS36 (ProbeSet 11739960_a_at) / RFU SYPL1 (11715823_x_at) / Fold change /veh SYPL1 (11715823_x_at) / RFU IGFBP7 (11715501_s_at) / Fold change /veh IGFBP7 (11715501_s_at) / RFU REEP3 (11722064_at) / Fold change /veh REEP3 (11722064_at) / RFU IGLL1 (11728026_x_at) / Fold change /veh IGLL1 (11728026_x_at): dose or concentration left out as unconfirmed. The settings on record: MV-4-11 cells, 48 hours.

Take `Nc1ccc(-c2cccs2)cc1NC(=O)c1ccc2c(c1)cc(C1CC1)n2CCN1CCOCC1` [ACY-1035]: the “RFU VCAN (11755009_s_at)” value is listed as 8.96 RFU.

For the origin of these results see article PMC5218480 (PLoS ONE, 2017).
